Experimental data from patent publication US20040102522A1, “Dosage form of sodium ibuprofen” (priority 2002, published 2004).

Experiment: Water uptake (hygroscopicity) of sodium ibuprofen forms
Format: physicochemical

With `CC(C)Cc1ccc(C(C)C(=O)O)cc1.O.[Na]` (centres unmarked) [sodium ibuprofen hydrate] the “additional water uptake on open storage” value (open storage over 6 months at 40° C. and 75% RH, water content 13-14% by weight) was “did not take up additional water”.

With `CC(C)Cc1ccc(C(C)C(=O)O)cc1.[Na]` (centres unmarked) [water free sodium ibuprofen, sodium ibuprofen] the water taken up (relative humidity 25% RH, spontaneous) was “up to 13.6 % by weight”.
